Experimental data reported in patent publication US20030198617A1, “Pharmaceutical tryptophan containing dipeptide compositions and methods of use thereof” (priority 1993, published 2003).
Marks after values point to notes of the source that are not given here.

Assays:
[1] = Chronic prostatitis, clinical result and immunological examination; conditions: after treatment
Protocol: A clinical study of the preparation was conducted in 34 chronic prostatitis patients having active inflammation. Patients were aged 22 to 45 years old. Diagnosis was established by patient complaints, a medical history, palpation of the prostate, and laboratory investigation methods (microscopic examination of prostate gland secretions, spermography, three-cup urinalysis).
A traditional treatment plan was followed simultaneously, using antibacterial preparations, uroantiseptics, physical procedures, prostate gland massage, and therapeutic exercise.
Measurement reliability of the obtained indices was evaluated with the use of variable statistics methods.
The persistent disappearance (over an observation period of 1-1.5 months) of painful sensations, leukocyturia, the lowering of the leukocyte count to normal levels in prostate gland secretions and ejaculate, and the overall improvement in the general state of the patient were all deemed to be a good result.
The normalization of all laboratory indices while complaints of pain persisted in the perineum, sacrum, anal region, scrotum, etc. was rated as a satisfactory result.
The second group was made up of patients with lowered initial indices, and the third had patients with elevated initial indices.

[2] = Chronic pyoderma (staphylococcal skin diseases), clinical and immunological testing
Protocol: IM862 was used in the form of a 0.01% solution (100 μg of the preparation in one IV tube). The preparation was administered intranasally, daily, at 100 μg for a course of 5 days.
The effectiveness of IM862 use was evaluated according to the subjective impression of the patient, clinical findings, body temperature, general clinical and immunological testing of the peripheral blood. Also, bacteriological investigation of the disease agents were conducted before and after treatment with IM862.
IM862 was administered to 59 chronic pyoderma patients. […] The patients ranged in age from 18 to 56 years old. Thirty-two men and 27 women were studied. Duration of illness was from 5 months to 16 years.
For determining the norm of T- and B-system immunity and non-specific resistance, 175 healthy donors (men & women), aged 18 to 50 years, were examined. Lymphocytes were extracted from the heparinized (25 U/ml) peripheral blood of healthy and ill persons in a ficoll-urotrast density gradient. T-lymphocytes were identified by spontaneous rosette-formation with ram erythrocytes. The T-lymphocyte subpopulations were determined with the aid of mouse monoclonal antibodies, OKT4 and OKT8, as well as with the aid of a theophylline resistance test. B-lymphocytes were determined by rosette-formation with mouse erythrocytes. The B-lymphocyte subpopulations were determined according to the presence of various classes of immunoglobulins (Ig+, IgM^+, IgG^+, IgA^+) on their surfaces with the aid of monospecific antibodies. In serum, the content of the immunoglobulins M, G, & A, and the C3-component of complement was determined by using monospecific sera to human immunoglobulins with the radial immunodiffusion method. The percentage of migration inhibition in a LMIR with PHA and ConA was determined using the hemolytic staphylococcus allergen (HSA). The phagocytic activity of the neutrophils (percent and absolute quantity of phagocytic polymorphonuclear leukocytes) and the phagocytic index (mean quantity of microorganisms absorbed by a single phagocyte) were studied with the use of a museum culture of the “Oxford 209P” strain. Other analyzed parameters were the cationic protein content (MCC) in the neutrophils, the serum immune complexes (CIC), the natural killer activity (CI) by the 3H-uridine test, and the quantity of neutrophils forming rosettes with sheep erythrocytes.

[3] = Abscessing and indurative comedones
[4] = after IM862, phagocytosis with staph. cells
[5] = after treatment with IM862 (Table 21)

Substance: Glu-Trp [IM862]
- Imm. complexes units ([1]; initial level lowered n = 8): 0.07 ± 0.011 units
- B-lymphocytes % ([1]; initial level lowered n = 10): 26.0 ± 2.91^x %
- Complement units ([1]; initial level lowered n = 14): 34.2 ± 0.93^x units
- T-lymphocytes % ([1]; initial level lowered n = 14): 37.9 ± 2.24%
- Phagocytosis % ([1]; initial level normal n = 3): 58.6 ± 17.98%
- Imm. complexes units ([1]; initial level normal n = 7): 0.08 ± 0.006 units
- Complement units ([1]; initial level normal n = 13): 29.3 ± 0.88 units
- B-lymphocytes % ([1]; initial level normal n = 16): 29.2 ± 2.15%
- T-lymphocytes % ([1]; initial level normal n = 18): 50.0 ± 3.57%
- IgG ([1]; lowered in 2 patients): 7.80 ± 1.13 g/L
- IgM ([1]; normal in 33 patients): 2.08 ± 0.12 g/L
- Ig (character image) l ([1]; normal in 34 patients): 2.20 ± 0.12
- IgG ([1]; normal in 34 patients): 12.51 g/L
- Considerable Improvement, number of patients [2, 3]: 1
- Recovery, number of patients [2, 3]: 4
- improvement, number of patients [2, 3]: 1
- Considerable Improvement, number of patients ([2]; Chronic abscessing pyoderma): 2
- Recovery, number of patients ([2]; Chronic abscessing pyoderma): 5
- Recovery, number of patients ([2]; Chronic furunculosis): 10
- Recovery, number of patients ([2]; Chronic recurring folliculitis-deep): 1
- Recovery, number of patients ([2]; Chronic recurring osteofolliculitis): 3
- Considerable Improvement, number of patients ([2]; Chronic ulcerative pyoderma): 2
- Considerable Improvement, number of patients ([2]; Papulous-pustulous comedones): 3
- Recovery, number of patients ([2]; Papulous-pustulous comedones): 4
- Considerable Improvement, number of patients ([2]; Total number of patients): 8
- improvement, number of patients ([2]; Total number of patients): 1
- Recovery, number of patients ([2]; Total number of patients (36 resistant to standard therapy)): 27
- CIC units ([2]; after IM862): 45.9 ± 4.9 units
- Cathion proteins MCC × 10^9/l ([2]; after IM862): 1.46 ± 0.05^y
- Etr-RFC/Ets-RFC ([2]; after IM862): 5.32 ± 1.00
- LMIF with ConA % ([2]; after IM862): 58.3 ± 3.9^yy %
- LMIF with HSA % ([2]; after IM862): 84.9 ± 5.5^yy %
- LMIF with PHA % ([2]; after IM862): 40.2 ± 3.9^y %
- Lymphocytes % ([2]; after IM862): 30.8 ± 1.4%
- Lymphocytes ×10^9/l ([2]; after IM862): 2.41 ± 0.14 ×10^9/l
- Monocytes × 10^9/l ([2]; after IM862): 0.43 ± 0.04 × 10^9/l
- NK-activity (CI) % ([2]; after IM862): 45.18 ± 2.55^y %
- Neutrophils En-RFC % ([2]; after IM862): 14.7 ± 1.6%
- Neutrophils En-RFC × 10^9/l ([2]; after IM862): 0.7 ± 0.11 × 10^9/l
- Neutrophils × 10^9/l ([2]; after IM862): 4.54 ± 0.25 × 10^9/l
- Phagocytic index % × 10^9/l ([2]; after IM862): 5.31 ± 0.20^y
- T4/T8 ([2]; after IM862): 1.32 ± 011^y^
- T-helpers Etr-RFC % ([2]; after IM862): 51.7 ± 2.8^y %
- T-helpers Etr-RFC ×10^9/l ([2]; after IM862): 1.28 ± 0.09^y ×10^9/l
- T-helpers OKT4^+ % ([2]; after IM862): 20.3 ± 2.9%
- T-helpers OKT4^+ ×10^9/l ([2]; after IM862): 0.46 ± 0.05^y ×10^9/l
- T-lymphocytes E-RFC % ([2]; after IM862): 69.3 ± 1.9^y %
- T-lymphocytes E-RFC ×10^9/l ([2]; after IM862): 1.68 ± 0.12^y ×10^9/l
- T-suppressors Etr-RFC % ([2]; after IM862): 17.9 ± 2.4%
- T-suppressors Etr-RFC ×10^9/l ([2]; after IM862): 0.45 ± 0.08 ×10^9/l
- T-suppressors OKT8 % ([2]; after IM862): 17.1 ± 1.9%
- T-suppressors OKT8 ×10^9/l ([2]; after IM862): 0.39 ± 0.04 ×10^9/l
- Leukocytes ×10^9/l ([2]; after IM862 (Table 22)): 7.75 ± 0.33 ×10^9/l
- Monocytes % ([2]; after IM862 (Table 24)): 5.65 ± 0.40%
- Neutrophils % ([2]; after IM862 (Table 24)): 59.8 ± 1.6%
- Phagocytic activity* % [2, 4]: 48.9 ± 2.8%
- Phagocytic activity* × 10^9/l [2, 4]: 2.36 ± 0.27 × 10^9/l
- B-lymphocytes (IgA^+) % ([2]; after treatment with IM862): 2.4 ± 0.3%
- B-lymphocytes (IgA^+) ×10^9/l ([2]; after treatment with IM862): 0.06 ± 0.008 ×10^9/l
- B-lymphocytes (IgG^+) % ([2]; after treatment with IM862): 14.7 ± 2.16%
- B-lymphocytes (IgG^+) ×10^9/l ([2]; after treatment with IM862): 0.19 ± 0.023^y ×10^9/l
- B-lymphocytes (IgM^+) % ([2]; after treatment with IM862): 4.4 ± 0.6%
- B-lymphocytes (IgM^+) ×10^9/l ([2]; after treatment with IM862): 0.10 ± 0.01 ×10^9/l
- B-lymphocytes (Ig^+) % ([2]; after treatment with IM862): 16.9 ± 1.7%
- B-lymphocytes (Ig^+) ×10^9/l ([2]; after treatment with IM862): 0.34 ± 0.05 ×10^9/l
- B-lymphocytes Em-RFC % ([2]; after treatment with IM862): 12.1 ± 1.5%
- B-lymphocytes Em-RFC ×10^9/l ([2]; after treatment with IM862): 0.28 ± 0.04 ×10^9/l
- Bacilli/nuclei % ([2]; after treatment with IM862): 3.8 ± 0.6%
- Basophils % ([2]; after treatment with IM862): 0.1 ± 0.1%
- Body temperature (morning) ([2]; after treatment with IM862): 36.2 ± 0.1
- ESP, mm/hr ([2]; after treatment with IM862): 11.2 ± 1.4 mm/hr
- Erythrocytes ×10^12/l ([2]; after treatment with IM862): 5.2 ± 0.6 ×10^12/l
- IgA ([2]; after treatment with IM862): 2.40 ± 0.18 g/L
- IgG ([2]; after treatment with IM862): 15.5 ± 0.73 g/L
- IgM ([2]; after treatment with IM862): 1.25 ± 0.12 g/L
- Segm./nuclei % ([2]; after treatment with IM862): 61.9 ± 1.4%
- Leukocytes ×10^9/l [2, 5]: 7.75 ± 0.36 ×10^9/l
- Monocytes % [2, 5]: 5.7 ± 0.4%
- Neutrophils % [2, 5]: 59.8 ± 1.6%
- side effects / tolerance ([2]; intranasally 100 μg daily, 5 days): No side effects from its use were noted in any of the patients
- relapses, number of patients ([2]; observation for 6 months after discharge): 3 patients
